The values that follow come from patent US9540397B2, “BACE1 inhibitors” (Hoffmann-La Roche Inc., priority 2014, dated 2017).

Molecules are shown by their SMILES.

One assay addresses T1, BACE1 (Homo sapiens, UniProt P56817).
T1 construct: endogenous in cells; host or cells: HEK293 APP cells
The assay can be described thus: Cellular Aβ-lowering assay (Abeta 40 AlphaLISA, HEK293 APP cells). The class given is cell-based. As to conditions: 18-20 hrs incubation, Aβ40 in culture supernatant, read-out: BACE1 cell act. Aβ40 IC50. The procedure: Cellular Aβ-lowering assay:
The Abeta 40 AlphaLISA Assay can be used. The HEK293 APP cells were seeded in 96 well Microtiter plates in cell culture medium (Iscove's, plus 10% (v/v) fetal bovine serum, penicillin/streptomycin) to about 80% confluency and the compounds were added at a 3× concentration in ⅓ volume of culture medium (final DMSO concentration was kept at 1% v/v). After 18-20 hrs incubation at 37° C. and 5% CO2 in a humidified incubator, the culture supernatants were harvested for the determination of AP 40 concentrations using Perkin-Elmer Human Amyloid beta 1-40 (high specificity) Kit (Cat#AL275C).
In a Perkin-Elmer White Optiplate-384 (Cat#6007290), 2 ul culture supernatants were combined with 2 μl of a 10× AlphaLISA Anti-hAβ Acceptor beads+Biotinylated Antibody Anti-Aβ 1-40 Mix ([…]/5 nM). After 1 hour room temperature incubation, 16 μl of a 1.25× preparation of Streptavidin (SA) Donor beads (25 μg/mL) were added and incubated for 30 minutes in the Dark. Light Emission at 615 nm was then recorded using EnVision-Alpha Reader. Levels of Aβ 40 in the culture supernatants were calculated as percentage of maximum signal (cells treated with 1% DMSO without inhibitor). The IC50 values were calculated using the Excel XLfit software.
In general terms: In Alpha technology, singlet oxygen from a donor bead excites a nearby acceptor bead.

The subject of assay [1] is Aβ40 in brain of wild-type mice. Nature of the assay: Lowering of Aβ40 in brain of wild-type mice. It counts as in vivo. As to conditions: Mus musculus, po; female C57Bl/6J mice, 30 mg/kg per os, 4 h; brain Aβ40 related to the value in the vehicle group; read-out: Aβ40 (wt mice, brain). The procedure:
Lowering of Aβ40 in Brain of Wild-Type Mice:
Animals and Housing Conditions.
Animals were maintained in a 12/12 h light/dark cycle, with lights starting at 6 a.m., and experiments were conducted during the light phase. Animal housing and experimental procedures were in line with ethical and legal guidelines and were authorized by local veterinary authorities.
Experiment. Female C57Bl/6J mice were treated with a dose of 30 mg/kg of the compounds, 3-4 animals per treatment group. The test compound was dissolved in 5% EtOH, 10% Solutol, and was applied per os at 10 mL/kg. After 4 h, the animals were sacrificed and brain and plasma were collected. The brain was cut into halves and immediately frozen on dry ice. Brain was used for measurement of Aβ40 and plasma was used for determination of compound exposure. […] Brain tissue was homogenized in 2% DEA buffer in a Roche MagnaLyser (20″, 4000 rpm) and subsequently centrifuged for 1 h at 100000 g. DEA was reduced to 0.2% in 50 mM NaCl and one-half of the DEA lysate was passed over an Oasis Solid phase extraction plate (Waters; cat. no. 186000679), which had been activated with MeOH and equilibrated in dH2O (1 mL each). After washes in 10% and 30% MeOH (1 mL each), the Aβ-peptides were eluted in 0.8 mL of 2% NH4OH in 90% MeOH. The eluate was dried over a N2 flow, and the dried sample was reconstituted in 30 μL of AlphaLISA assay buffer. Aβ40 was determined by an AlphaLISA assay (Perkin-Elmer). In a white 96-well, half area microplate (Perkin-Elmer cat. no. 6005561), 20 μL of the reconstituted sample were mixed with 5 μL of biotinylated BAP-24 (specific for C-terminus of Aβ40) (Brockhaus, M.; Grunberg, J.; Rohrig, S.; Loetscher, H.; Wittenburg, N.; Baumeister, R.; Jacobsen, H.; Haass, C. Caspasemediated cleavage is not required for the activity of presenilins in amyloidogenesis and NOTCH signaling. NeuroReport 1998, 9, 1481-1486.) stock=4.4 mg/mL, f.c.5.5 μg/mL), and 5 μL 252Q6 acceptor beads (252Q6 antibody, Invitrogen AMB0062) had been previously conjugated with AlphaLISA Acceptor beads (Perkin-Elmer cat. no. 6772002); final dilution 1:500). The mix was incubated for 1 h at RT in the dark. Then 20 μL of Streptavin-coated Donor Beads (Perkin-Elmer cat. no. 6760002, final dilution 1:125) were added and this final mix was incubated in the dark for another 30 min at RT before RFU was measured in an AlphaScreen Reader (Perkin-Elmer Envision 2104). The value obtained for Aβ40 in the treated animals was related to the value in the vehicle group and is given in %. Alternatively a commercial ELISA was used for Aβ40 determination (Wako ELISA: (“Human/Rat β Amyloid (40) ELISA kit Wako II”; cat nr. 294-64701) following the manufacture's instruction. Also here the Aβ-lowering efficacy was calculated as percentage of the vehicle group.

T1 sequence (P56817 46-501): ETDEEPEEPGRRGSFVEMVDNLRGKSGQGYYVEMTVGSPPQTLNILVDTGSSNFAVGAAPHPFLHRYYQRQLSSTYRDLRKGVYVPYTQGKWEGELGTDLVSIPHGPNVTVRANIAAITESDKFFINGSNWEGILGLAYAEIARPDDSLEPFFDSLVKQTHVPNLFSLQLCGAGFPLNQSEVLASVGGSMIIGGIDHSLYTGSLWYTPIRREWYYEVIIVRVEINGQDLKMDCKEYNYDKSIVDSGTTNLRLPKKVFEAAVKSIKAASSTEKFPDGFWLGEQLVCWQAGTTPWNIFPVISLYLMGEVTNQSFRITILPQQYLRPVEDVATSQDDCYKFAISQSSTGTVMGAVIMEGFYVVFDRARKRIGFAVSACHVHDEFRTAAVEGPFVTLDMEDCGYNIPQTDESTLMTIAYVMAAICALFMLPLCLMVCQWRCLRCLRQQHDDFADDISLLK

As a reminder, the IC50 is the concentration that gives 50% inhibition. Consider `Cc1cc(C#N)cnc1C(=O)Nc1ccc(F)c([C@@]2(C)N=C(N)C(C)(C)[S@@]3(=O)=NCCC[C@H]23)n1` [Example 1AA, N-(6-((4aR,5R,9R)-7-amino-5,8,8-trimethyl-9-oxido-2,3,4,4a,5,8-hexahydro-[1,4]thiazino[2,1-f][1,2]thiazin-5-yl)-5-fluoropyridin-2-yl)-5-cyano-3-methylpicolinamide], for which the IC50 at BACE1 worked out at 0.6 nM. For the same compound, the response vs control in vivo at 30 mg/kg in assay [1] came out at 38%.

Regarding `Cc1cc(C#N)cnc1C(=O)Nc1ccc(F)c([C@@]2(C)N=C(N)C(C)(C)[S@@]3(=O)=NCCC[C@@H]23)n1` [Example 1AB, N-(6-((4aS,5R,9R)-7-amino-5,8,8-trimethyl-9-oxido-2,3,4,4a,5,8-hexahydro-[1,4]thiazino[2,1-f][1,2]thiazin-5-yl)-5-fluoropyridin-2-yl)-5-cyano-3-methylpicolinamide], on BACE1, the IC50 is 2.3 nM. In assay [1], the response vs control in vivo at 30 mg/kg was 79%.

`Cc1cc(C#N)cnc1C(=O)Nc1ccc(F)c([C@@]2(C)N=C(N)C(C)(C)[S@]3(=O)=NCCC[C@H]23)n1` [Example 1BA, N-(6-((4aR,5R,9S)-7-amino-5,8,8-trimethyl-9-oxido-2,3,4,4a,5,8-hexahydro-[1,4]thiazino[2,1-f][1,2]thiazin-5-yl)-5-fluoropyridin-2-yl)-5-cyano-3-methylpicolinamide]: at BACE1, the IC50 worked out at 0.5 nM. In addition, in assay [1], the response vs control in vivo at 30 mg/kg was found to be 95%.

As for `Cc1cc(C#N)cnc1C(=O)Nc1ccc(F)c([C@@]2(C)N=C(N)C(C)(C)[S@]3(=O)=NCCC[C@@H]23)n1` [Example 1BB, N-(6-((4aS,5R,9S)-7-amino-5,8,8-trimethyl-9-oxido-2,3,4,4a,5,8-hexahydro-[1,4]thiazino[2,1-f][1,2]thiazin-5-yl)-5-fluoropyridin-2-yl)-5-cyano-3-methylpicolinamide], the IC50 on BACE1 came out at 3.9 nM. The response vs control in vivo at 30 mg/kg in assay [1] is 93%.

As for `COc1cnc(C(=O)Nc2ccc(F)c([C@@]3(C)N=C(N)C(C)(C)[S@@]4(=O)=NCCC[C@H]34)n2)cn1` [Example 2AA, N-(6-((4aR,5R,9R)-7-amino-5,8,8-trimethyl-9-oxido-2,3,4,4a,5,8-hexahydro-[1,4]thiazino[2,1-f][1,2]thiazin-5-yl)-5-fluoropyridin-2-yl)-5-methoxypyrazine-2-carboxamide], the half-inhibitory concentration (IC50) on BACE1 was 19.7 nM. Further, the response vs control in vivo at 30 mg/kg in assay [1] came out at 83%.

As to `COc1cnc(C(=O)Nc2ccc(F)c([C@@]3(C)N=C(N)C(C)(C)[S@@]4(=O)=NCCC[C@@H]34)n2)cn1` [Example 2AB, N-(6-((4aS,5R,9R)-7-amino-5,8,8-trimethyl-9-oxido-2,3,4,4a,5,8-hexahydro-[1,4]thiazino[2,1-f][1,2]thiazin-5-yl)-5-fluoropyridin-2-yl)-5-methoxypyrazine-2-carboxamide], the IC50 at BACE1 was 18.7 nM. For the same compound, the response vs control in vivo at 30 mg/kg in assay [1] turned out to be 92%.

On to `COc1cnc(C(=O)Nc2ccc(F)c([C@@]3(C)N=C(N)C(C)(C)[S@]4(=O)=NCCC[C@H]34)n2)cn1` [Example 2BA, N-(6-((4aR,5R,9S)-7-amino-5,8,8-trimethyl-9-oxido-2,3,4,4a,5,8-hexahydro-[1,4]thiazino[2,1-f][1,2]thiazin-5-yl)-5-fluoropyridin-2-yl)-5-methoxypyrazine-2-carboxamide], for which the IC50 at BACE1 was 21.7 nM. In addition, in assay [1], the response vs control in vivo at 30 mg/kg was found to be 87%.

As for `CC1(C)C(N)=N[C@](C)(c2nc(NC(=O)c3ncc(Cl)cc3Cl)ccc2F)[C@H]2CCCN=[S@@]21=O` [Example 3AA, N-(6-((4aR,5R,9R)-7-amino-5,8,8-trimethyl-9-oxido-2,3,4,4a,5,8-hexahydro-[1,4]thiazino[2,1-f][1,2]thiazin-5-yl)-5-fluoropyridin-2-yl)-3,5-dichloropicolinamide], the 50% inhibitory concentration (IC50) on BACE1 was 1.3 nM. Moreover, the response vs control in vivo at 30 mg/kg in assay [1] worked out at 76%.

Turning to `Cc1cc(F)cnc1C(=O)Nc1ccc(F)c([C@@]2(C)N=C(N)C(C)(C)[S@@]3(=O)=NCCC[C@H]23)n1` [Example 4AA, N-(6-((4aR,5R,9R)-7-amino-5,8,8-trimethyl-9-oxido-2,3,4,4a,5,8-hexahydro-[1,4]thiazino[2,1-f][1,2]thiazin-5-yl)-5-fluoropyridin-2-yl)-5-fluoro-3-methylpicolinamide], at BACE1, the IC50 came to 18.1 nM. For the same compound, the response vs control in vivo at 30 mg/kg in assay [1] was 80%.

With `Cc1c(C(=O)Nc2ccc(F)c([C@@]3(C)N=C(N)C(C)(C)[S@@]4(=O)=NCCC[C@H]34)n2)nc2ccc(Cl)cn12` [Example 6AA, N-(6-((4aR,5R,9R)-7-amino-5,8,8-trimethyl-9-oxido-2,3,4,4a,5,8-hexahydro-[1,4]thiazino[2,1-f][1,2]thiazin-5-yl)-5-fluoropyridin-2-yl)-6-chloro-3-methylimidazo[1,2-a]pyridine-2-carboxamide], the IC50 on BACE1 was found to be 28.5 nM. In assay [1], the response vs control in vivo at 30 mg/kg came out at 103%.

Take `CC1(C)C(N)=N[C@](C)(c2nc(NC(=O)c3ccc(OC(F)F)cn3)ccc2F)[C@H]2CCCN=[S@@]21=O` [Example 7AA, N-(6-((4aR,5R,9R)-7-amino-5,8,8-trimethyl-9-oxido-2,3,4,4a,5,8-hexahydro-[1,4]thiazino[2,1-f][1,2]thiazin-5-yl)-5-fluoropyridin-2-yl)-5-(difluoromethoxy)picolinamide]: on BACE1, the IC50 stood at 2.7 nM. Further, the response vs control in vivo at 30 mg/kg in assay [1] came out at 65%.

For `CC1(C)C(N)=N[C@](C)(c2nc(NC(=O)c3ccc(OCC(F)(F)C(F)F)cn3)ccc2F)[C@H]2CCCN=[S@@]21=O` [Example 8AA, N-(6-((4aR,5R,9R)-7-amino-5,8,8-trimethyl-9-oxido-2,3,4,4a,5,8-hexahydro-[1,4]thiazino[2,1-f][1,2]thiazin-5-yl)-5-fluoropyridin-2-yl)-5-(2,2,3,3-tetrafluoropropoxy)picolinamide], the 50% inhibitory concentration (IC50) on BACE1 turned out to be 35.4 nM. Besides, the response vs control in vivo at 30 mg/kg in assay [1] was determined as 61%.

In the case of `Cc1cc(C#N)cnc1C(=O)Nc1ccc(F)c([C@@]2(C)N=C(N)C(C)(C)[S@@]3(=O)=NCC[C@@H]23)n1` [Example 9AB, N-(6-((3aS,4R,8R)-6-amino-4,7,7-trimethyl-8-oxido-3,3a,4,7-tetrahydro-2H-isothiazolo[1,5-a][1,4]thiazin-4-yl)-5-fluoropyridin-2-yl)-5-cyano-3-methylpicolinamide], the IC50 at BACE1 is 0.6 nM. Moreover, the response vs control in vivo at 30 mg/kg in assay [1] stood at 40%.

Take `Cc1cc(C#N)cnc1C(=O)Nc1ccc(F)c([C@@]2(C)N=C(N)C(C)(C)[S@]3(=O)=NCC[C@H]23)n1` [Example 9BA, N-(6-((3aR,4R,8S)-6-amino-4,7,7-trimethyl-8-oxido-3,3a,4,7-tetrahydro-2H-isothiazolo[1,5-a][1,4]thiazin-4-yl)-5-fluoropyridin-2-yl)-5-cyano-3-methylpicolinamide]: the IC50 at BACE1 came out at 14.9 nM. For the same compound, in assay [1], the response vs control in vivo at 30 mg/kg was determined as 86%.
